Assay results: US7700593B2, “Imidazo- and triazolo-pyridine compounds and methods of use thereof” (Amgen Inc., priority 2006, dated 2010)
pIC50: −log10 of the molar value.

Key:
p38α = p38α (Homo sapiens, UniProt Q16539); assay: p38 in-vitro HTRF enzyme assay; type: biochemical; conditions: IC50 value ranges
In short: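 Activated recombinant human p38α with ATP and 100 nM GST-ATF2-Avitag, 1 h at RT in Tris pH 7.5/MgCl2 buffer; compound 10-point 3-fold series from about 1 μM final. HTRF 665/620 nm ratio; IC50 from 4-parameter fit, Ki via Cheng-Prusoff with experimental ATP Km.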

THP1 cells = assay: Lipopolysaccharide-activated THP1 cell TNF production assay; type: cell-based, human; conditions: Homo sapiens, THP-1; LPS-induced TNF-α production in THP1 cells
In short: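 THP1 cells at 1E6/mL were stimulated with LPS (1 μg/mL prepared stock) alongside 3-fold serially diluted compound for 3 h at 37 °C. Secreted TNF-α was quantified by electrochemiluminescence sandwich immunoassay. Percent of DMSO control was fitted to a 4-parameter logistic equation.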

monocytes = assay: Lipopolysaccharide-activated monocyte TNF production assay (LPS induced TNF release); type: cell-based, human; conditions: Homo sapiens, Monocyte; LPS induced TNF release from monocytes; read-out: LPS induced TNFa
In short: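 Adherent monocytes from human PBMCs were pretreated with compound 60 min, then stimulated with E. coli LPS (30 ng/mL stock added) for 4 h at 37 °C. Supernatant TNF-α measured by sandwich ELISA; concentration giving 50% TNF reduction derived by polynomial fit.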

p38α, sequence (Q16539 whole entry): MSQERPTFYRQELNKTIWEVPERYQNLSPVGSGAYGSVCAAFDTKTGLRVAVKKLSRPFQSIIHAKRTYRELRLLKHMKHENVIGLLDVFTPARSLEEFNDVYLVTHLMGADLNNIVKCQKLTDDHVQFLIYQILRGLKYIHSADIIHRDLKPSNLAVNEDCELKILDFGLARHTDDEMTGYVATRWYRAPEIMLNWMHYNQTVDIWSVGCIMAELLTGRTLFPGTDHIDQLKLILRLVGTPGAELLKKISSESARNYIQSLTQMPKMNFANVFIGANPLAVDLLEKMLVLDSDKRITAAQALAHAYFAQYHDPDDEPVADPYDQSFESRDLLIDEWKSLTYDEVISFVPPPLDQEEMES

pIC50 (p38α) | pIC50 (THP1 cells) | pIC50 (monocytes) | Structure (SMILES)
> 7.60 | 6.60 to 7.00 | 6.60 to 7.00 | CCNC(=O)c1ccc(C)c(-c2ccn3c(-c4ccccc4Cl)nnc3c2)c1 [Example 52, 3-(3-(2-chlorophenyl)[1,2,4]triazolo[4,3-a]pyridin-7-yl)-N-ethyl-4-methylbenzamide]
> 7.60 | > 7.60 | 7.00 to 7.60 | Cc1ccc(C(=O)NC2CC2)cc1-c1ccn2c(-c3c(F)cccc3C(F)(F)F)nnc2c1 [Example 69, N-cyclopropyl-3-(3-(2-fluoro-6-(trifluoromethyl)phenyl)[1,2,4]triazolo[4,3-a]pyridin-7-yl)-4-methylbenzamide]
> 7.60 | 7.00 to 7.60 | 6.60 to 7.00 | Cc1ccc(C(=O)NC2CC2)cc1-c1ccn2c(-c3ccccc3C(F)(F)F)nnc2c1 [Example 104, N-cyclopropyl-4-methyl-3-(3-(2-(trifluoromethyl)phenyl)[1,2,4]triazolo[4,3-a]pyridin-7-yl)benzamide]
> 7.60 | > 7.60 | 6.60 to 7.00 | Cc1ccc(C(=O)Nc2ccnn2C)cc1-c1ccn2c(-c3ccc(F)cc3Cl)nnc2c1 [Example 45, 3-(3-(2-chloro-4-fluorophenyl)[1,2,4]triazolo[4,3-a]pyridin-7-yl)-4-methyl-N-(1-methyl-1H-pyrazol-5-yl)benzamide]
> 7.60 | > 7.60 | > 7.60 | Cc1ccc(C(=O)NC2CC2)cc1-c1ccn2c(-c3c(C)cccc3Cl)nnc2c1 [Example 81, 3-(3-(2-chloro-6-methylphenyl)[1,2,4]triazolo[4,3-a]pyridin-7-yl)-N-cyclopropyl-4-methylbenzamide]
> 7.60 | > 7.60 | 7.00 to 7.60 | Cc1ccc(C(=O)Nc2ccnn2C)cc1-c1ccn2c(-c3sccc3C)nnc2c1 [Example 54, 4-methyl-N-(1-methyl-1H-pyrazol-5-yl)-3-(3-(3-methyl-2-thienyl)[1,2,4]triazolo[4,3-a]pyridin-7-yl)benzamide]
> 7.60 | 7.00 to 7.60 | 7.00 to 7.60 | Cc1ccc(C(=O)NC2CC2)cc1-c1ccn2c(-c3ccccc3F)nnc2c1 [Example 2, N-cyclopropyl-3-(3-(2-fluorophenyl)[1,2,4]triazolo[4,3-a]pyridin-7-yl)-4-methylbenzamide]
> 7.60 | > 7.60 | 7.00 to 7.60 | Cc1ccc(C(=O)NC2CC2)cc1-c1ccn2c(-c3cc(F)ccc3Cl)nnc2c1 [Example 46, 3-(3-(2-chloro-5-fluorophenyl)[1,2,4]triazolo[4,3-a]pyridin-7-yl)-N-cyclopropyl-4-methylbenzamide]
> 7.60 | 7.00 to 7.60 | 6.60 to 7.00 | Cc1ccc(C(N)=O)cc1-c1ccn2c(-c3ccccc3Cl)nnc2c1 [Example 44, 3-(3-(2-chlorophenyl)[1,2,4]triazolo[4,3-a]pyridin-7-yl)-4-methylbenzamide]
7.00 to 7.60 | 7.00 to 7.60 | 6.60 to 7.00 | CNC(=O)c1ccc(C)c(-c2ccn3c(-c4ccccc4Cl)nnc3c2)c1 [Example 40, 3-(3-(2-chlorophenyl)[1,2,4]triazolo[4,3-a]pyridin-7-yl)-N,4-dimethylbenzamide]
> 7.60 | > 7.60 | 7.00 to 7.60 | Cc1ccc(C(=O)NC2CC2)cc1-c1ccn2c(-c3sccc3Cl)nnc2c1 [Example 55, 3-(3-(3-chloro-2-thienyl)[1,2,4]triazolo[4,3-a]pyridin-7-yl)-N-cyclopropyl-4-methylbenzamide]

The next lines start with the molecule.

Structure (SMILES) | pIC50 (p38α) | pIC50 (THP1 cells) | pIC50 (monocytes)
Cc1c(F)cc(C(=O)NC2CC2)cc1-c1ccn2c(-c3c(F)cccc3Cl)nnc2c1 [Example 56, 3-(3-(2-chloro-6-fluorophenyl)[1,2,4]triazolo[4,3-a]pyridin-7-yl)-N-cyclopropyl-5-fluoro-4-methylbenzamide] | > 7.60 | > 7.60 | > 7.60
Cc1ccc(C(=O)NC2CC2)cc1-c1ccn2c(-c3ocnc3C)nnc2c1 [Example 57, N-cyclopropyl-4-methyl-3-(3-(4-methyl-1,3-oxazol-5-yl)[1,2,4]triazolo[4,3-a]pyridin-7-yl)benzamide] | 7.00 to 7.60 | 6.00 to 6.60 | 6.00 to 6.60
Cc1ccc(C(=O)Nc2ccnn2C)cc1-c1ccn2c(-c3ccc(S(C)(=O)=O)cc3)nnc2c1 [Example 14, 4-methyl-N-(1-methyl-1H-pyrazol-5-yl)-3-(3-(4-(methylsulfonyl)phenyl)[1,2,4]triazolo[4,3-a]pyridin-7-yl)benzamide] | 7.00 to 7.60 | 5.30 to 6.00 | 5.30 to 6.00
Cc1ccc(C(=O)Nc2ccnn2C)cc1-c1ccn2c(-c3cc(F)ccc3Cl)nnc2c1 [Example 47, 3-(3-(2-chloro-5-fluorophenyl)[1,2,4]triazolo[4,3-a]pyridin-7-yl)-4-methyl-N-(1-methyl-1H-pyrazol-5-yl)benzamide] | > 7.60 | > 7.60 | 7.00 to 7.60
Cc1ncoc1-c1nnc2cc(-c3cc(C(=O)NC4CC4)cc(F)c3C)ccn12 [Example 60, N-cyclopropyl-3-fluoro-4-methyl-5-(3-(4-methyl-1,3-oxazol-5-yl)[1,2,4]triazolo[4,3-a]pyridin-7-yl)benzamide] | > 7.60 | 6.60 to 7.00 | 6.60 to 7.00
Cc1ccc(C(=O)NC2CC2)cc1-c1ccn2c(-c3c(F)cccc3Cl)nnc2c1 [Example 63, 3-(3-(2-chloro-6-fluorophenyl)[1,2,4]triazolo[4,3-a]pyridin-7-yl)-N-cyclopropyl-4-methylbenzamide] | > 7.60 | > 7.60 | > 7.60
Cc1ccc(C(=O)Nc2ccnn2C)cc1-c1ccn2c(-c3ccccc3F)nnc2c1 [Example 30, 3-(3-(2-fluorophenyl)[1,2,4]triazolo[4,3-a]pyridin-7-yl)-4-methyl-N-(1-methyl-1H-pyrazol-5-yl)benzamide] | > 7.60 | 7.00 to 7.60 | 7.00 to 7.60
Cc1ccc(C(=O)NC2CC2)cc1-c1ccn2c(-c3ccc(S(C)(=O)=O)cc3)nnc2c1 [Example 12, N-cyclopropyl-4-methyl-3-(3-(4-(methylsulfonyl)phenyl)[1,2,4]triazolo[4,3-a]pyridin-7-yl)benzamide] | 7.00 to 7.60 | 5.30 to 6.00 | 6.00 to 6.60
Cc1cc(Cl)c(C(=O)NC2CC2)cc1-c1ccn2c(-c3ccccc3Cl)nnc2c1 [Example 90, 2-chloro-5-(3-(2-chlorophenyl)[1,2,4]triazolo[4,3-a]pyridin-7-yl)-N-cyclopropyl-4-methylbenzamide] | 6.00 to 6.60 | 5.30 to 6.00 | < 5.30
Cc1ccc(C(=O)Nc2ccnn2C)cc1-c1ccn2c(-c3ccccc3Cl)ncc2c1 [Example 9, 3-(3-(2-chlorophenyl)imidazo[1,5-a]pyridin-7-yl)-4-methyl-N-(1-methyl-1H-pyrazol-5-yl)benzamide] | > 7.60 | > 7.60 | 7.00 to 7.60
Cc1ccc(C(=O)NC2CC2)cc1-c1ccn2c(C3CCCC3)nnc2c1 [Example 95, 3-(3-cyclopentyl[1,2,4]triazolo[4,3-a]pyridin-7-yl)-N-cyclopropyl-4-methylbenzamide] | > 7.60 | > 7.60 | 7.00 to 7.60
Cc1ccc(C(=O)NC2CC2)cc1-c1ccn2c(-c3sccc3C)nnc2c1 [Example 53, N-cyclopropyl-4-methyl-3-(3-(3-methyl-2-thienyl)[1,2,4]triazolo[4,3-a]pyridin-7-yl)benzamide] | > 7.60 | 7.00 to 7.60 | 7.00 to 7.60
Cc1cc(F)c(C(=O)NC2CC2)cc1-c1ccn2c(-c3ccccc3Cl)nnc2c1 [Example 70, 5-(3-(2-chlorophenyl)[1,2,4]triazolo[4,3-a]pyridin-7-yl)-N-cyclopropyl-2-fluoro-4-methylbenzamide] | > 7.60 | 7.00 to 7.60 | 6.60 to 7.00
Cc1ccc(C(=O)NC2CC2)cc1-c1cc2nnc(-c3ccccc3Cl)n2cc1C [Example 35, 3-(3-(2-chlorophenyl)-6-methyl[1,2,4]triazolo[4,3-a]pyridin-7-yl)-N-cyclopropyl-4-methylbenzamide] | > 7.60 | > 7.60 | 7.00 to 7.60
Cc1ccc(C(=O)NC2CC2)cc1-c1ccn2c(C(F)(F)F)nnc2c1 [Example 102, N-cyclopropyl-4-methyl-3-(3-(trifluoromethyl)[1,2,4]triazolo[4,3-a]pyridin-7-yl)benzamide] | 6.60 to 7.00 | 6.00 to 6.60 | 6.00 to 6.60
Cc1ccc(C(=O)NC2CC2)cc1-c1ccn2c(Cc3ccccc3)nnc2c1 [Example 89, N-cyclopropyl-4-methyl-3-(3-(phenylmethyl)[1,2,4]triazolo[4,3-a]pyridin-7-yl)benzamide] | > 7.60 | 6.60 to 7.00 | 6.00 to 6.60
Cc1c(F)cc(C(=O)Nc2ccon2)cc1-c1ccn2c(-c3c(F)cccc3F)nnc2c1 [Example 92, 3-(3-(2,6-difluorophenyl)[1,2,4]triazolo[4,3-a]pyridin-7-yl)-5-fluoro-N-3-isoxazolyl-4-methylbenzamide] | > 7.60 | > 7.60 | > 7.60
Cc1ccc(C(=O)NC2CC2)cc1-c1ccn2c(-c3c(Cl)cccc3Cl)nnc2c1 [Example 62, N-cyclopropyl-3-(3-(2,6-dichlorophenyl)[1,2,4]triazolo[4,3-a]pyridin-7-yl)-4-methylbenzamide] | > 7.60 | > 7.60 | > 7.60
